Measured values from paper PMC10461224, “Development of an Affinity-Based Probe to Profile Endogenous Human Adenosine A3 Receptor Expression” (Journal of Medicinal Chemistry, 2023).

Molecular target: T1, hA3AR (Homo sapiens, UniProt P0DMS8)
T1 construct: expressed in transfected cells; host or cells: CHO cells (CHOhA3AR), gift of Prof; K.N. Klotz, University of Würzburg; used as membrane fractions or live cells
T1 sequence (P0DMS8 1-318): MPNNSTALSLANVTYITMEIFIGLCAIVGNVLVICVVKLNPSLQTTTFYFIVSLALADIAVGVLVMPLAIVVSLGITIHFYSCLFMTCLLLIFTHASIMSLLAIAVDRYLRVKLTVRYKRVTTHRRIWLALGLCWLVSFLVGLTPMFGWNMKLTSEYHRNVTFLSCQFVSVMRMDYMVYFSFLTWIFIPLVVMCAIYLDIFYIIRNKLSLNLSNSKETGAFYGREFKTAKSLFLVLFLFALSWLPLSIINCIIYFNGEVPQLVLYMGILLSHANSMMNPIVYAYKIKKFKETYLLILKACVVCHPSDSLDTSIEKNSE
Assay: SDS-PAGE labeling on live CHO cells
Type: cell-based
Details: 50 nM, 1 h, 37 °C; signal reduced by PSB-11
Procedure: CHOhA3AR and CHO-K1 cells were cultured as mentioned above. Cells were grown to ∼90% confluency in 10 cm φ plates. 10 plates were used per condition per experiment. The medium was removed, and the competing ligand (PSB-11, unless noted otherwise) in medium (final concentration: 1 μM) was added. Cells were incubated for 1 h (37 °C, 5% CO2). The medium was removed, and the affinity-based probe (final concentration: 50 nM in medium) was added. The cells were incubated for 1 h (37 °C, 5% CO2) and washed with PBS to get rid of all the non-bound probes. Subsequently, the membranes were prepared and collected using the procedure as described above. Membrane aliquots were diluted to a concentration of 1 μg/μL, and 20 μL was taken per sample. PNGase (0.5 μL, 5 U) or MilliQ was added, and the samples were incubated for 1 h at rt. Next, the click mix was freshly prepared by adding together 5 parts 100 mM CuSO4 in MilliQ, 3 parts 1 M NaAsc in MilliQ, 1 part 100 mM THPTA in MilliQ, and 1 part 100 μM Cy5-N3 in DMSO. […] In-gel fluorescence was measured on a Bio-Rad Universal Hood III using Cy3 (605/50 filter) or Cy5 (695/55 filter) settings. […]
Gel images were analyzed using Image Lab software version 6.0.1 (Bio-Rad). Quantification was done in the following manner: the area under the curve (AUC) of the bands was selected using the ‘Lane Profile’ tab and the adjusted volumes were taken. […]

In the case of C#CCOc1ccn2c(c1)nc1c2c(=O)n(CCC)c(=O)n1CCCNC(=O)c1ccc(S(=O)(=O)F)cc1 [compound 9, 4-((3-(2,4-Dioxo-8-(prop-2-yn-1-yloxy)-3-propyl-3,4-dihydropyrido[2,1-f]purin-1(2H)-yl)propyl)carbamoyl)benzenesulfonyl fluoride], the “labeling of hA3AR on live CHO cells (SDS-PAGE)” value is reported as “binds and labels the hA3AR on live cells”.
